Test systems include ACHN; CAKI-1; EKVX; HOP-62; HOP-92; KM12; MOLT-4; Malme-3M; NCI-H23; NCI-H460; OVCAR-3; RPMI-8226; SF-268; SK-OV-3; SN12C; SR; TK-10; UACC-257; UO-31; SK-MEL-2.
Holding throughout (experiment): NCI-60 cell line screen, 48 h

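Five concentrations, 48 hours, 96-well plates. GI50 is the concentration that inhibits growth by half.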 Calls of active or inactive are those of the source. Cut-off read from the data, not from the text of the source: active = GI50 up to about 1.1 µM and inactive = higher.

With `Cc1c(OC(C)C(=O)O)ccc2c(-c3ccccc3)cc(=O)oc12` (stereo not drawn), the GI50 with ACHN, in the assay on CAKI-1, in the assay with EKVX, with HOP-62, in the assay with HOP-92 and in the assay on KM12 was > 100 µM (inactive) each time. Further, the GI50 in the assay with MOLT-4, in the assay with Malme-3M, in the assay on NCI-H23, with NCI-H460, in the assay with OVCAR-3 and with RPMI-8226 was > 100 µM (inactive) throughout. Besides, the GI50 in the assay on SF-268, in the assay on SK-OV-3, in the assay on SN12C, in the assay on SR, in the assay on TK-10 and in the assay on UACC-257 was > 100 µM (inactive) in each case. The GI50 in the assay with UO-31 was > 100 µM (inactive).
`COc1ccc(-c2cs/c(=N\c3ccccc3)n2CCCN(C)C)cc1`: the GI50 is 21.8 µM (inactive) in the assay with ACHN; 71.9 µM (inactive) in the assay on CAKI-1; 13.6 µM (inactive) in the assay with HOP-62; 26.3 µM (inactive) in the assay on HOP-92; 15 µM (inactive) with KM12; 16.5 µM (inactive) in the assay on MOLT-4. In addition, the GI50 is 23.1 µM (inactive) in the assay on NCI-H23; 23.8 µM (inactive) in the assay with NCI-H460; 17.1 µM (inactive) in the assay with OVCAR-3; 24.5 µM (inactive) in the assay on RPMI-8226; 24.3 µM (inactive) with SF-268; 19.8 µM (inactive) with SK-MEL-2. Moreover, the GI50 in the assay on SK-OV-3 is 15.6 µM (inactive); in the assay on SN12C, 33.7 µM (inactive); in the assay with SR, 22.8 µM (inactive); with TK-10, 14.2 µM (inactive); in the assay on UACC-257, 18.9 µM (inactive); in the assay with UO-31, 12.4 µM (inactive).
On to `CC1(Br)S(=O)(=O)OCCOS1(=O)=O`, for which the GI50 with ACHN, in the assay on EKVX, in the assay with HOP-62, in the assay with HOP-92, with MOLT-4 and with Malme-3M was > 100 µM (inactive) each time. Also, the GI50 in the assay with NCI-H23, in the assay with NCI-H460, in the assay with OVCAR-3, with RPMI-8226, in the assay on SF-268 and in the assay with SK-MEL-2 was > 100 µM (inactive) each time. Also, the GI50 with SK-OV-3, with SN12C, with SR, in the assay on TK-10, in the assay on UACC-257 and with UO-31 was > 100 µM (inactive) throughout.
Regarding `ON(Cc1ccccc1)C(=S)c1ccccc1`, the GI50 in the assay with ACHN was 4.21 µM (inactive); in the assay on EKVX, 7.23 µM (inactive); in the assay with HOP-62, 4.85 µM (inactive); in the assay on HOP-92, 50.7 µM (inactive); in the assay with KM12, 4.76 µM (inactive); in the assay on MOLT-4 it was 1.09 µM (active). The GI50 was 25.4 µM (inactive) with Malme-3M; 3.62 µM (inactive) with NCI-H23; 1.93 µM (inactive) in the assay on NCI-H460; 2.72 µM (inactive) with OVCAR-3; 2.77 µM (inactive) in the assay with RPMI-8226; 3.32 µM (inactive) in the assay on SF-268. In addition, the GI50 with SK-MEL-2 is 2.62 µM (inactive); in the assay with SK-OV-3, 14.7 µM (inactive); in the assay on SN12C, 8.41 µM (inactive); with SR, 0.481 µM (active); in the assay with TK-10, 21.8 µM (inactive); in the assay on UACC-257, 4.72 µM (inactive). For the same compound, the GI50 in the assay on UO-31 is 4.03 µM (inactive).
Regarding `COc1ccc(NC(=O)C(=O)NNC(=O)c2sc(NNC(C)=O)nc2C)c([N+](=O)[O-])c1`, the GI50 in the assay on ACHN is 45.5 µM (inactive); with EKVX, > 100 µM (inactive); in the assay with HOP-62, > 100 µM (inactive); with HOP-92, > 100 µM (inactive); in the assay on KM12 it was > 100 µM (inactive); in the assay with MOLT-4 it was 36 µM (inactive). Moreover, the GI50 with Malme-3M is > 100 µM (inactive); with NCI-H23 it was > 100 µM (inactive); in the assay with NCI-H460, > 100 µM (inactive); with OVCAR-3, 33.5 µM (inactive); in the assay with RPMI-8226 it was 65.9 µM (inactive); with SF-268, 51.8 µM (inactive). Moreover, the GI50 with SK-MEL-2 was > 100 µM (inactive); in the assay with SK-OV-3, > 100 µM (inactive); in the assay on SN12C it was > 100 µM (inactive); in the assay on SR it was 45.3 µM (inactive); with TK-10, > 100 µM (inactive); in the assay on UACC-257, 81.7 µM (inactive). Further, the GI50 in the assay with UO-31 is > 100 µM (inactive).
On to `O=C1C(Cl)C2(CC(/C=C/c3cccs3)=NN2c2cccc(S(=O)(=O)O)c2)N1c1nc2ccccc2s1` (stereo not drawn), for which the GI50 with ACHN is 58.3 µM (inactive); in the assay on CAKI-1, 37.1 µM (inactive); with EKVX it was 24.2 µM (inactive); with HOP-92, 1.79 µM (inactive); with KM12, > 100 µM (inactive); with MOLT-4, 31.5 µM (inactive). The GI50 in the assay with Malme-3M was > 100 µM (inactive); in the assay with NCI-H23, 27.8 µM (inactive); in the assay on NCI-H460 it was 31.1 µM (inactive); with RPMI-8226 it was 47 µM (inactive); in the assay with SF-268, > 100 µM (inactive); with SK-MEL-2 it was > 100 µM (inactive). For the same compound, the GI50 in the assay on SN12C was > 100 µM (inactive); with SR it was 29.9 µM (inactive); in the assay with TK-10, 19.3 µM (inactive); in the assay on UACC-257 it was 76.9 µM (inactive); in the assay with UO-31, 10.9 µM (inactive).
On to `CC(O)(P(=O)(O)O)P(=O)(O)OCC(O)CN1CCOCC1` (stereo not drawn), for which the GI50 with ACHN, in the assay on CAKI-1, with EKVX, in the assay on HOP-62, in the assay on HOP-92 and in the assay with KM12 was > 100 µM (inactive) in each case. Also, the GI50 in the assay with MOLT-4, in the assay with Malme-3M, in the assay with NCI-H23, with NCI-H460, in the assay on RPMI-8226 and with SF-268 was > 100 µM (inactive) each time. For the same compound, the GI50 in the assay with SK-OV-3, in the assay with SR, in the assay on TK-10, in the assay with UACC-257 and in the assay on UO-31 was > 100 µM (inactive) in each case.
In the case of `COC(=O)N[C@H](C(=O)NC(OCc1ccccc1)C1COC(C)(C)O1)C(C)O[Si](C)(C)C(C)(C)C` (stereo partly drawn), the GI50 with ACHN was > 100 µM (inactive); in the assay with CAKI-1 it was 96.2 µM (inactive); with EKVX, > 100 µM (inactive); in the assay on HOP-62, 92.5 µM (inactive); in the assay on HOP-92, 70 µM (inactive); with MOLT-4, 31.4 µM (inactive). Moreover, the GI50 in the assay with Malme-3M was > 100 µM (inactive); with NCI-H23, > 100 µM (inactive); in the assay on NCI-H460, 57.3 µM (inactive); in the assay on RPMI-8226 it was 22.4 µM (inactive); in the assay with SF-268 it was > 100 µM (inactive); in the assay on SK-OV-3, > 100 µM (inactive). Moreover, the GI50 is 26.4 µM (inactive) in the assay with SR, > 100 µM (inactive) in the assay with TK-10, 59.4 µM (inactive) in the assay on UACC-257 and > 100 µM (inactive) in the assay with UO-31.

These data come from ChEMBL document CHEMBL1201862, “PubChem BioAssay data set” (2004).
